Measurements published in ChEMBL document CHEMBL6177919, “Development, biological evaluation, and molecular modelling of some benzene-sulfonamide derivatives as protein tyrosine phosphatase-1B inhibitors for managing diabetes mellitus and associated metabolic disorders” (RSC Med Chem, 2025).

Biological target: T1, Tyrosine-protein phosphatase non-receptor type 1 (Homo sapiens, UniProt P18031)
T1 sequence (P18031 whole entry): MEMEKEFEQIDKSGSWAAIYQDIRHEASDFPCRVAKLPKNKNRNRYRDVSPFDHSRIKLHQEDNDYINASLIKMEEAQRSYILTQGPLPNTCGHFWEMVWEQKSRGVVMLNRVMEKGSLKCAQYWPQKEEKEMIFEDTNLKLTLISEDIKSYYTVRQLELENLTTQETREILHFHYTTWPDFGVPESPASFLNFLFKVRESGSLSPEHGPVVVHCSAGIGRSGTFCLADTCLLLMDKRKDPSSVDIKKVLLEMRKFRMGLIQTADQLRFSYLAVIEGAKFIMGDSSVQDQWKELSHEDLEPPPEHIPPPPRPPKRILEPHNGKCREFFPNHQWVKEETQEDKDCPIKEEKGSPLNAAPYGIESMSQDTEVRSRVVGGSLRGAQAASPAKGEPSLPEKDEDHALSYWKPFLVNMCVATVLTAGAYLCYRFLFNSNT
Description: Inhibition of PTP1B (unknown origin)

IC50 [nM]	SMILES
1300	O=C(O)c1ccc(CN2C(=O)S/C(=C\c3ccc(OCc4ccccc4)cc3)C2=O)cc1

Biological target: T1, Tyrosine-protein phosphatase non-receptor type 1
Remark: another data set of the same source
Description: Inhibition of C-terminal PTP1B (unknown origin)

SMILES	IC50 [nM]
COC(=O)CC[C@@H](C)[C@H]1CC[C@H]2[C@@H]3[C@H](O)C[C@H]4C[C@H](NCCCCNCc5ccccn5)CC[C@]4(C)[C@H]3CC[C@]12C	100

Biological target: T1, Tyrosine-protein phosphatase non-receptor type 1
Remark: another data set of the same source
Description: Inhibition of human recombinant PTP1B incubated for 15 mins by fluorometric assay

SMILES	IC50 [nM]
CCN1C(=O)C(C)S/C1=N\c1ccc(S(=O)(=O)Nc2ncccn2)cc1 (stereo not given)	710
N#CC1=CC(=O)N(c2ccc(S(=O)(=O)Nc3ncccn3)cc2)C1=O	720
CC/N=C1\SCC(=O)N1c1ccc(S(=O)(=O)Nc2ncccn2)cc1	16600
CCN1C(=O)CS/C1=N\c1ccc(S(=O)(=O)Nc2ncccn2)cc1	620
CCc1ccc(CCOc2ccc(CC3SC(=O)NC3=O)cc2)nc1 (stereo not given) [PIOGLITAZONE]	650

Second part, the compound after the results:

IC50 [nM]	SMILES
14000	O=C1CS/C(=N\c2ccccc2)N1c1ccc(S(=O)(=O)Nc2ncccn2)cc1
830	CC(=O)C1=CC(=O)N(c2ccc(S(=O)(=O)Nc3ncccn3)cc2)C1=O
570	CN1CCN(CC(=O)Nc2ccc(S(=O)(=O)Nc3ncccn3)cc2)CC1
3670	O=C(CN1CCN(c2ccccc2)CC1)Nc1ccc(S(=O)(=O)Nc2ncccn2)cc1
1890	CC1S/C(=N\c2ccc(S(=O)(=O)Nc3ncccn3)cc2)N(c2ccccc2)C1=O (stereo not given)
1950	CC1O/C(=N\c2ccc(S(=O)(=O)Nc3ncccn3)cc2)N(c2ccccc2)C1=O (stereo not given)
8970	N=C1SCC(=O)N1c1ccc(S(=O)(=O)Nc2ncccn2)cc1
680	O=S(=O)(Nc1ncccn1)c1ccc(NCc2nc3ccccc3[nH]2)cc1
